Experimental data from patent US20030153548A1, “Histamine-3 receptor ligands for diabetic conditions” (priority 2002, published 2003).

Legend:
[1] = system: C57BL-6J mice fed a high-fat diet; assay: Insulin tolerance test in mice fed a high-fat diet; assay type: in vivo; details: FIG. 1
Procedure: Assessment of the ability of H3 receptor antagonists to ameliorate symptoms of diabetes has been determined in several ways. In the first instance, effects of an H3 antagonist on the insulin tolerance test in mice fed a high-fat diet were determined. C57BL-6J mice (aged 5-6 weeks) were obtained from Jackson Labs (Bar Harbor, Me., U.S.A.) and individually housed at Abbott facilities under conditions of 12 h lights on, 12 h lights off (on at 22:00), with food and water available ad libitum. […] Nine days prior to drug treatment, postprandial blood glucose was determined via a Medisense-G glucometer (Abbott Laboratories, Medisense Division, Bedford, Mass., U.S.A.). […] On day 21, animals were fasted for 3 hours and fasting blood glucose determined in a blood sample obtained by tail snip. Insulin tolerance was determined by administering insulin (Lilly Humulin-R, 0.25 U/kg, i.p., obtained from Eli Lilly and Company, Indianapolis, Ind., U.S.A.) with blood glucose measured at 30, 60, 90 and 120 minutes using the glucometer. […] The 4′-{3-[(3R)-3-(dimethylamino)pyrrolidinyl]propoxy} [1,1′-biphenyl]-4-carbonitrile compound was administered p.o. at doses of 0.5, 5, and 15 mg/kg b.i.d., and dexfenfluramine at a dose of 10 mg/kg p.o., b.i.d. Data were analyzed using GraphPad InStat® (San Diego, Calif., U.S.A.) software using a one-way ANOVA software followed by Dunnett's post hoc test.

[2] = system: C57BL-6J mice fed a high-fat diet; assay: Serum triglyceride levels in mice fed a high-fat diet; assay type: in vivo; details: FIG. 2

SMILES: CN(C)[C@@H]1CCN(CCCOc2ccc(-c3ccc(C#N)cc3)cc2)C1 [Compound A, 4′-{3-[(3R)-3-(dimethylamino)pyrrolidinyl]propoxy}[1,1′-biphenyl]-4-carbonitrile]
- insulin tolerance test (blood glucose after insulin) ([1]; 15 mg/kg p.o. twice daily): completely normalized
- insulin tolerance test (blood glucose after insulin) ([1]; 0.5, 5 and 15 mg/kg p.o. b.i.d., day 21, insulin 0.25 U/kg i.p.): dose-dependent improvement

SMILES: CC(C)CC(N(C)C)C1(c2ccc(Cl)cc2)CCC1 (centres unmarked) [sibutramine, reference compound]
- triglyceride levels (effects as of Compound B) ([2]; 5 mg/kg p.o. b.i.d., after 13 days): not seen

SMILES: CN(C)C1CCN(CCCOc2c(F)cc(-c3ccc(C#N)cc3)cc2F)C1 (centres unmarked) [Compound B]
- triglyceride levels ([2]; 10 mg/kg p.o. b.i.d., after 13 days): reduced to the same level as those seen in low-fat diet fed mice
- triglyceride levels ([2]; 1, 3 and 10 mg/kg p.o. b.i.d., postprandial blood after 13 days): clear, dose-dependent decrease
